Measurements published in patent US4885239A, “Rapid differentiation of bacteria using polyether antibiotics” (Eastman Kodak Company, priority 1986, dated 1989).

Columns and labels:
[1] = system: viable gram-positive and gram-negative bacteria; assay: differentiation of viable gram-positive and gram-negative bacteria (outcome in words); type: cell-based; settings: RIND VII; calimycin 10^-3 molar
Protocol: (§1) gram-negative bacteria Enterobacter cloacae (ATCC 23355), Escherichia coli (ATCC 25922), Proteus vulgaris (ATCC 13315), Klebsiella pneumoniae (ATCC 13883) and Pseudomonas aeruginosa (ATCC 27853), and gram-positive bacteria Staphylococcus aureus (ATCC 25923) and Streptococcus pyogenes (ATCC 19615), and brain heart infusion (BHI) broth from Difco Laboratories (Detroit, Mich.),
Bacterial suspensions were prepared by growing the cells in BHI to stationary phase overnight at 37° C. P. aeruginosa was grown with agitation. About 40 ml of overnight cultures were centrifuged, decanted and washed once with 0.05 molar potassium phosphate buffer or 0.05 molar N-2-hydroxyethylpiperazine-N'-2-ethanesulfonic acid (HEPES) buffer, pH 7.8, and resuspended in buffer.
TERGITOL 7 anionic surfactant was used to differentiate viable bacteria according to the prior art method. Various concentrations of TERGITOL 7 surfactant were mixed with a 10% glucose solution (50 μl), 3-(4,5-dimethyl-2-thiazolyl)-2,5-diphenyl-2N-tetrazolium bromide (MTT) in methanol (25 μl at 5 mg/ml) or a RIND VII dispersion (1.5 ml) and phenazine methosulfate ETA (25 μl at 3 mg/ml methanol). The volume of each test solution was brought to 3 ml with potassium phosphate buffer. A cell suspension (100 μl at about 10^8 cells/ml) was then added. The solutions were incubated at 37° C. for 15 and 30 minutes in the presence of either E. coli, a gram (-) bacterium, or S. aureus, a gram (+) bacterium. The amount of dye formed was then determined visually and graded as follows: 0 indicates no dye formation, +/- indicates faint dye formation, 1+ indicates light dye formation, 2+ indicates moderate dye formation, 3+ indicates strong dye formation, and 4+ indicates very strong dye formation.
Calimycin, a polyether antibiotic, was similarly used with RIND VII in the differentiation of bacteria. Assays were performed as described above, except that 25 μl of 1 molar calcium chloride solution was added to each test solution and the P. aeruginosa response was measured in the presence of 10% yeast extract as the carbon source instead of glucose. The final concentration of calimycin in each test was 10^-3 molar.
The test solutions were prepared by adding the following, in order: 1.2 ml HEPES, 50 μl glucose solution, 1.5 ml RIND VII dispersion, 100 μl antibiotic solution, 100 μl cell suspension and 25 μl ETA solution. Cell control solutions contained all reagents except antibiotics. Background Controls consisted of both buffer and solution controls. The buffer control contained all reagents except antibiotics and cells. The solution control contained all reagents except cells.
Optical density readings (OD) were made at 635 nm at 0 minutes and after incubation at 37° C. for 30 minutes for all solutions, and the change (ΔOD) was determined. Table V below lists the results expressed as corrected percent inhibition of the reduction of RIND VII. The corrected percent inhibition was calculated by dividing the difference between ΔOD obtained from a Control test without antibiotic and the ΔOD of the test, by the ΔOD of the Control without antibiotic. All readings were corrected by subtracting readings of the appropriate background control.
Relative fluorescence was measured using a standard spectrophotometer modified to read at excitation of 540 nm and emission of 620 nm. The change (Δ) in relative fluorescence was determined after 30 minutes at 37° C. for several concentration levels of antibiotic.
Optical density measurements were obtained at 540 nm using a standard spectrophotometer and the change in optical density (ΔOD) was determined after 30 minutes at 37° C. The resulting data are shown in Table VII below for several concentrations of antibiotic. It is clear from the data that the composition of this example was useful for differentiating bacteria. […]

E. coli (gram -) = assay: inhibition of the reduction of RIND XXXV in dry analytical element (Example 6), E. coli; type: cell-based, Escherichia coli (ATCC 25922); settings: calcium chloride, 30 minutes, 37° C.
Protocol: as §1
Bacterial suspensions were prepared by growing the cells in BHI to stationary phase overnight at 37° C. P. aeruginosa was grown with agitation. […]
Optical density readings (OD) were made at 635 nm at 0 minutes and after incubation at 37° C. for 30 minutes for all solutions, and the change (ΔOD) was determined. […] The corrected percent inhibition was calculated by dividing the difference between ΔOD obtained from a Control test without antibiotic and the ΔOD of the test, by the ΔOD of the Control without antibiotic. All readings were corrected by subtracting readings of the appropriate background control. […]
The relative fluorescence (excitation 540 nm, emission 620 nm) was measured using a standard spectrophotometer, and the change in relative fluorescence was determined after 30 minutes at 37° C. […]

CNc1ccc2oc(C[C@H]3O[C@@]4(CC[C@H]3C)O[C@H]([C@H](C)C(=O)c3ccc[nH]3)[C@H](C)C[C@H]4C)nc2c1C(=O)O [calimycin, Calimycin]
inhibition of the reduction of the reducible compounds by viable gram-positive bacteria [1]: selectively and substantially inhibits the reduction of the reducible compounds | reductive capability of the viable gram-negative bacteria [1]: not inhibited | Corrected Percent Inhibition (E. coli (gram -)): 11.5%
